Where two headings read alike, the source gives them in different places.
Assays:
[1] = cited from earlier work
[2] = cited from earlier work; remark: listed apart in the source
[3] = cited from earlier work; remark: listed apart in the source
[4] = cited from earlier work; remark: listed apart in the source
[5] = saturated donor solution in water, receptor pH 7.4, 37° C., 0-26 hrs; compared to human, rat, pig skin
[6] = Transdermal diffusion (cumulative flux) through rat skin samples; conditions: rat skin samples of different ages, or rat versus human skin
[7] = separate human skin samples compared
[8] = Transdermal diffusion, vertical Franz Cell, untreated membrane; type: in vitro ADME; conditions: saturated donor solution in water, Sorensen's buffer pH 7.4 receptor, 37° C., 0-26 hrs
Protocol: Conditions for HPLC analysis of flufenamic acid are as noted below: Column Used: Zorbax XDB C18, 3.9 mm×150 mm, 5 μm Mobile Phase Used: 90% Methanol+10% water containing 40 mM acetic acid; Detection wavelength: 280 nm.

Row | Compound | Log P [1] | Log D (pH 7.4) [2] | Aqueous Solubility, LogS [3] | other results
1 | O=C(O)Cc1ccccc1Nc1c(Cl)cccc1Cl [Diclofenac] | 4.05 | 0.95 |  | 
2 | CN(C)CCCN1c2ccccc2Sc2ccc(Cl)cc21 [Chlorpromazine] | 5.203 | 3.22 | −5.01 | 
3 | CCCCNc1ccc(C(=O)OCCN(C)C)cc1 [Tetracaine] | 3.649 | 2.75 | −2.75 | pKa [4]: 8.24
4 | COc1cc(Cc2cnc(N)nc2N)cc(OC)c1OC [Trimethoprim] |  |  | −2.67 | 
5 | Clc1ccccc1C(c1ccccc1)(c1ccccc1)n1ccnc1 [Clotrimazole] | 6.1 |  | −5.37 | diffusion (cumulative flux) across treated membrane relative to skin [5]: high degree of correlation with human skin
6 | Oc1cc(Cl)ccc1Oc1ccc(Cl)cc1Cl [Triclosan/Irgasan, Triclosan] | 4.76 |  |  | 
7 | CN1CCCC1c1cccnc1 (stereo not shown) [Nicotine] | 0.72 | 0.02 | −0.24 | diffusion (cumulative flux) through rat skin [6]: variability between the rat and human skin samples
8 | COC(=O)c1ccc(O)cc1 [Methyl paraben, methyl p-hydroxybenzoate] |  |  |  | diffusion (cumulative flux) through separate human skin samples [7]: high degree of variability between the different human skin samples
9 | O=C(O)c1ccccc1Nc1cccc(C(F)(F)F)c1 [Flufenamic Acid] | 5.2 |  |  | diffusion (cumulative flux) across untreated membrane relative to human skin [8]: better correlation to human skin than the treated membrane
10 | O=C(c1ccccc1)c1ccc2n1CCC2C(=O)O (stereo not shown) [Ketorolac] |  |  | −2.7 | 
11 | CC(C(=O)O)c1ccc(-c2ccccc2)c(F)c1 (stereo not shown) [Flurbiprofen] | 4.115 | 0.98 | −4.49 | 
12 | CC(=O)Oc1ccccc1C(=O)O [Acetyl Salicylic Acid (Aspirin), Acetyl Salicylic Acid] |  | −1.89 |  | 
13 | C[C@]12CCC(=O)C=C1CC[C@@H]1[C@@H]2[C@@H](O)C[C@@]2(C)[C@H]1CC[C@]2(O)C(=O)CO [Hydrocortisone] | 1.462 |  |  | pKa [4]: 12.48; diffusion (cumulative flux) through rat skin [6]: does not appear to show a high degree of correlation with human skin
14 | C[C@@H]1C[C@H]2[C@@H]3CCC4=CC(=O)C=C[C@]4(C)[C@@]3(F)[C@@H](O)C[C@]2(C)[C@@]1(O)C(=O)CO [Dexamethasone] | 1.869 |  | −3.89 | Log P ([1]; listed as dexamethasone): 1.896; pKa [4]: 12.14; diffusion (cumulative flux) across treated membrane relative to skin [5]: diffusion similar to human and pig skin
